# Experimental data from patent US9346812B2, “Substituted pyrrolopyrimidine compounds, compositions thereof, and methods of treatment therewith” (Signal Pharmaceutical LLC, priority 2013, dated 2016).
# System: CAL51 cell proliferation
# Experiment: Cell Titer Glo Proliferation Assay (CAL51)
# Type: cell-based, human
# Details: Homo sapiens, CAL-51; CAL51 cell proliferation, 72 h, Cell Titer Glo luminescence; read-out: Act. Level
# In short: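 Viability is measured by CellTiter-Glo luminescence after 72 h of compound exposure. CAL51 cells were seeded in growth medium with 10% FBS and 2 mM glutamine, cultured overnight, then dosed with compound dilutions, vehicle held at 0.2% DMSO.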
row,Compound,IC50
1,"CNC(=O)c1ccc(Nc2nc(OC3CCCC3)c3c(-c4ccc5cnn(C)c5c4)c[nH]c3n2)c(OC)c1 [Example 278, 4-(4-(cyclopentyloxy)-5-(1-methyl-1H-indazol-6-yl)-7H-pyrrolo[2,3-d]pyrimidin-2-ylamino)-3-methoxy-N-methylbenzamide]",400 to 1000 nM
2,"CNC(=O)c1ccc(Nc2nc(OC3CCCC3)c3c(-c4ccc(O)c(F)c4)c[nH]c3n2)c(OC)c1 [Example 42, 4-(4-(cyclopentyloxy)-5-(3-fluoro-4-hydroxyphenyl)-7H-pyrrolo[2,3-d]pyrimidin-2-ylamino)-3-methoxy-N-methylbenzamide]",< 100 nM
3,"COc1nc(Nc2ccc(-c3cn[nH]c3)cc2)nc2[nH]cc(-c3ccc4nc(C)oc4c3)c12 [Example 88, N-(4-(1H-pyrazol-4-yl)phenyl)-4-methoxy-5-(2-methylbenzo[d]oxazol-6-yl)-7H-pyrrolo[2,3-d] pyrimidin-2-amine]",100 to 400 nM
4,"CNC(=O)c1ccc(Nc2nc(OC3CCCC3)c3c(-c4ccc(O)cc4)c[nH]c3n2)c(F)c1 [Example 15, 4-(4-(cyclopentyloxy)-5-(4-hydroxyphenyl)-7H-pyrrolo[2,3-d]pyrimidin-2-ylamino)-3-fluoro-N-methylbenzamide]",< 100 nM
5,"CNC(=O)c1ccc(Nc2nc(OC3CCCC3)c3c(-c4ccc5cn[nH]c5c4)c[nH]c3n2)c(OC)c1 [Example 25, 4-(4-(cyclopentyloxy)-5-(1H-indazol-6-yl)-7H-pyrrolo[2,3-d]pyrimidin-2-ylamino)-3-methoxy-N-methylbenzamide]",100 to 400 nM
6,"CNC(=O)c1ccc(-c2c[nH]c3nc(Nc4ccc(C(=O)NC)cc4C)nc(O[C@H]4CCOC4)c23)cc1 [Example 153, (S)-N,3-dimethyl-4-(5-(4-(methylcarbamoyl)phenyl)-4-(tetrahydrofuran-3-yloxy)-7H-pyrrolo[2,3-d]pyrimidin-2-ylamino)benzamide]",< 100 nM
7,"COc1nc(Nc2ccc(C(=O)N(C)C)cc2Cl)nc2[nH]cc(-c3ccc4[nH]c(C)nc4c3)c12 [Example 83, 3-chloro-4-(4-methoxy-5-(2-methyl-1H-benzo[d]imidazol-5-yl)-7H-pyrrolo[2,3-d]pyrimidin-2-ylamino)-N,N-dimethylbenzamide]",< 100 nM
8,"CNC(=O)c1ccc(Nc2nc(OC3CCOCC3)c3c(-c4nnco4)c[nH]c3n2)c(OC)c1 [Example 174, 4-(5-(1,3,4-oxadiazol-2-yl)-4-(tetrahydro-2H-pyran-4-yloxy)-7H-pyrrolo[2,3-d]pyrimidin-2-ylamino)-3-methoxy-N-methylbenzamide]",400 to 1000 nM
9,"CNC(=O)c1ccc(Nc2nc(OC3CCCC3)c3c(-c4ccc(CO)cc4)c[nH]c3n2)c(OC)c1 [Example 23, 4-(4-(cyclopentyloxy)-5-(4-(hydroxymethyl)phenyl)-7H-pyrrolo[2,3-d]pyrimidin-2-ylamino)-3-methoxy-N-methylbenzamide]",100 to 400 nM
10,"COc1cc(C(=O)N(CCO)C2CC2)ccc1Nc1nc(OC2CCCC2)c2c(-c3ccc4nc(C)oc4c3)c[nH]c2n1 [Example 251, 4-(4-(cyclopentyloxy)-5-(2-methylbenzo[d]oxazol-6-yl)-7H-pyrrolo[2,3-d]pyrimidin-2-ylamino)-N-cyclopropyl-N-(2-hydroxyethyl)-3-methoxybenzamide]",100 to 400 nM
11,"Cc1cc(C(=O)N(C)C)ccc1Nc1nc(OC2CCOCC2)c2c(-c3cnn(C)c3)c[nH]c2n1 [Example 112, N,N,3-trimethyl-4-(5-(1-methyl-1H-pyrazol-4-yl)-4-(tetrahydro-2H-pyran-4-yloxy)-7H-pyrrolo[2,3-d]pyrimidin-2-ylamino)benzamide]",< 100 nM
12,"CNC(=O)c1ccc(Nc2nc(OC(C)C)c3c(-c4ccc(-c5ncc[nH]5)cc4)c[nH]c3n2)c(OC)c1 [Example 193, 4-(5-(4-(1H-imidazol-2-yl)phenyl)-4-isopropoxy-7H-pyrrolo [2,3-d]pyrimidin-2-ylamino)-3-methoxy-N-methylbenzamide]",< 100 nM
13,"CCOc1ccc(-c2c[nH]c3nc(Nc4ccc(C(=O)NC)cc4C)nc(O[C@H]4CCOC4)c23)cn1 [Example 162, (S)-4-(5-(6-ethoxypyridin-3-yl)-4-(tetrahydrofuran-3-yloxy)-7H-pyrrolo[2,3-d]pyrimidin-2-ylamino)-N,3-dimethylbenzamide]",100 to 400 nM
14,"Cc1nc2ccc(-c3c[nH]c4nc(Nc5ccc(C(=O)N6CCOCC6)cc5C)nc(OC5CCCC5)c34)cc2o1 [Example 86, (4-(4-(cyclopentyloxy)-5-(2-methylbenzo[d]oxazol-6-yl)-7H-pyrrolo[2,3-d]pyrimidin-2-ylamino)-3-methylphenyl) (morpholino)methanone]",100 to 400 nM
15,"CNC(=O)c1ccc(Nc2nc(OC3CCOCC3)c3c(-c4ccnc(NC(C)=O)c4)c[nH]c3n2)c(OC)c1 [Example 236, 4-(5-(2-acetamidopyridin-4-yl)-4-(tetrahydro-2H-pyran-4-yloxy)-7H-pyrrolo[2,3-d]pyrimidin-2-ylamino)-3-methoxy-N-methylbenzamide]",< 100 nM
16,"COc1cc(C(=O)N[C@H]2C[C@H](O)C2)ccc1Nc1nc(OC2CCCC2)c2c(-c3ccc4nc(C)oc4c3)c[nH]c2n1 [Example 239, 4-(4-(cyclopentyloxy)-5-(2-methylbenzo[d]oxazol-6-yl)-7H-pyrrolo[2,3-d]pyrimidin-2-ylamino)-N-((1r,3r)-3-hydroxycyclobutyl)-3-methoxybenzamide]",< 100 nM
17,"CNC(=O)c1ccc(Nc2nc(OC(C)C)c3c(-c4ccnn4C)c[nH]c3n2)c(OC)c1 [Example 226, 4-(4-isopropoxy-5-(1-methyl-1H-pyrazol-5-yl)-7H-pyrrolo[2,3-d]pyrimidin-2-ylamino)-3-methoxy-N-methylbenzamide]",1000 to 10000 nM
18,"CNC(=O)c1ccc(Nc2nc(O[C@H]3CCOC3)c3c(-c4cnn(C)c4)c[nH]c3n2)c(C)c1 [Example 165, (S)-N,3-dimethyl-4-(5-(1-methyl-1H-pyrazol-4-yl)-4-(tetrahydrofuran-3-yloxy)-7H-pyrrolo[2,3-d]pyrimidin-2-ylamino)benzamide]",< 100 nM
19,"CNC(=O)c1ccc(Nc2nc(O[C@H]3CCOC3)c3c(-c4ccc5nc(C)oc5c4)c[nH]c3n2)c(OC)c1 [Example 169, (S)-3-methoxy-N-methyl-4-(5-(2-methylbenzo[d]oxazol-6-yl)-4-(tetrahydrofuran-3-yloxy)-7H-pyrrolo[2,3-d]pyrimidin-2-ylamino)benzamide]",< 100 nM
20,"CNC(=O)c1ccc(Nc2nc(O[C@H]3CC[C@@](C)(O)CC3)c3c(-c4ccc5nc(C)oc5c4)c[nH]c3n2)c(OC)c1 [Example 206, 4-(4-((1s,4s)-4-hydroxy-4-methylcyclohexyloxy)-5-(2-methylbenzo[d]oxazol-6-yl)-7H-pyrrolo[2,3-d]pyrimidin-2-ylamino)-3-methoxy-N-methylbenzamide]",< 100 nM
21,"COc1cc(C(=O)N2CCC(OC)CC2)ccc1Nc1nc(OC2CCCC2)c2c(-c3ccc4nc(C)oc4c3)c[nH]c2n1 [Example 275, (4-(4-(cyclopentyloxy)-5-(2-methylbenzo[d]oxazol-6-yl)-7H-pyrrolo[2,3-d]pyrimidin-2-ylamino)-3-methoxyphenyl)(4-methoxypiperidin-1-yl)methanone]",< 100 nM
22,"CNC(=O)c1ccc(Nc2nc(OC3CCOCC3)c3c(-c4ccncc4)c[nH]c3n2)c(OC)c1 [Example 114, 3-methoxy-N-methyl-4-(5-(pyridin-4-yl)-4-(tetrahydro-2H-pyran-4-yloxy)-7H-pyrrolo[2,3-d]pyrimidin-2-ylamino)benzamide]",< 100 nM
